The target in assay [1] is T1, 17β-HSD1 (Homo sapiens, UniProt P14061).
T1 construct: endogenous in cells; host or cells: T-47D human breast cancer cells (ATCC), whole cells
T1 sequence (P14061 1-328): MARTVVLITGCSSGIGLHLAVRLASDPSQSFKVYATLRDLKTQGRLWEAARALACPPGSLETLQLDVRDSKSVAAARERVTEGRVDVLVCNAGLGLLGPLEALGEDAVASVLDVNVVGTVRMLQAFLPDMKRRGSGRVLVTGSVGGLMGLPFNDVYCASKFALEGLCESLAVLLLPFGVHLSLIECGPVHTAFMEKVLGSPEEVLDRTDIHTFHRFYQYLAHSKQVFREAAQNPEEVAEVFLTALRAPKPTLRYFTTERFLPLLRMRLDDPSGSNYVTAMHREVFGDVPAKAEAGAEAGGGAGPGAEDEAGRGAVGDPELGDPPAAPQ
Kind of assay: 17β-HSD1 inhibition assay: transformation of [3H]-E1 to [3H]-E2 in whole T-47D cells. Particulars: for inhibition at 0.1 µM / inhibition at 1 µM / inhibition at 10 µM: T47D. Type of assay: cell-based. Here is the method: Cells were maintained under a 5% CO2 humidified atmosphere at 37 °C. The culture media were changed every two or three days and the cells were split once a week to maintain cell propagation.
T-47D cells were grown in a medium supplemented with insulin (50 ng/mL) and 5% dextran-coated charcoal-treated FBS, which was used rather than untreated 10% FBS, to remove the remaining steroid hormones. Stock solution of each compound to be tested was previously prepared in DMSO and diluted with a culture medium to achieve the appropriate concentrations, prior to use. For the assay, the cells (8000 cells/well) were seeded in a 24-well plate. After 24 h of incubation, a diluted solution of each inhibitor was added to the cells to obtain the appropriate final concentration (0.1, 1 and 10 μM). The final concentration of DMSO in the well was adjusted to 0.03%. […] Cells were incubated for 24 h and each inhibitor was assessed in triplicate. […] The organic phase was evaporated to dryness with nitrogen. Residues were dissolved in CH2Cl2, spotted on silica gel TLC plates (EMD Chemicals Inc., Gibbstown, NJ, USA) and eluted with toluene/acetone (4:1) as the solvent system. […] Each compound was quantified with a scintillation counter.

Assay [2] has as its system Z-12 endometriotic epithelial cells. The assay is described as follows: Cell viability (MTS) assay in Z-12 cells. Particulars: for IC50: cell proliferation after 3 days, MTS, read-out: Z-12 Cells (Endometriosis) (IC50 in μM), cell proliferation; for Stimulation of ER+ cell proliferation (estrogenic activity): Z-12 cells, 3 days. It counts as cell-based, human. On the procedure: Z-12 cells: Human Z-12 endometriotic epithelial cells were obtained from Dr. Asgi T. Fazleabas (Michigan State University, Grand Rapids, MI). Cells were grown in Dulbecco’s Modified Eagle medium (DMEM/F12) supplemented with 5% (v/v) FBS treated with dextran-coated charcoal, L-glutamine ([…]), penicillin (100 IU/mL) and streptomycin (100 µg/mL). Cells were maintained under a 5% CO2 humidified atmosphere at 37 °C. The culture media were changed every two or three days and the cells were split once a week to maintain cell propagation.
(§1) The cell proliferation assays were performed using 3-(4,5-dimethylthiazol-2-yl)-5-(3-carboxymethoxyphenyl)-2-(4-sulfophenyl)-2H-tetrazolium (MTS) (Cell Titer 96 Aqueous, Promega, Nepean, ON, Canada), as previously described. Briefly, cells (5000/well for T-47D or 3000/well for Z-12) were plated in triplicate in 96-well plates in appropriate culture medium (total of 90 µL). Before each treatment, the cells were incubated at 37 °C in a 5% CO2 humidified atmosphere for 24 h. Compounds 5, 6, 10 and RM-581, as positive control, were dissolved in DMSO to obtain stock solutions, which were diluted at multiple concentrations with culture media to obtain the desired final concentration by adding 10 µL in each well, and the mixture was incubated for 3 days. Following treatment, 20 µL of a solution of MTS were added to each well and the mixture was incubated for 4 h. The plates were subsequently analyzed at 490 nm using a Tecan M-200 microplate reader (Männedorf, Switzerland) and the concentration inhibiting 50% of cell proliferation was determined using GraphPad Prism 6 software.

Assay [3] has as its system T-47D breast cancer cells. Kind of assay: Cell viability (MTS) assay in T-47D cells. It counts as cell-based, human. As to conditions: for IC50: cell proliferation after 3 days, MTS; for Stimulation of ER+ cell proliferation (estrogenic activity): T-47D cells, 3 days. Here is the method: T-47D cells: Human T-47D breast cancer cells were obtained from American Type Culture Collection (Manassas, VA, USA) and cultured in RPMI-1640 supplemented with L-glutamine ([…]), penicillin (100 IU/mL), streptomycin (100 µg/mL), 17β-estradiol (1 nM) and 10% (v/v) fetal bovine serum (FBS). Cells were maintained under a 5% CO2 humidified atmosphere at 37 °C. The culture media were changed every two or three days and the cells were split once a week to maintain cell propagation.
as §1

Where [4] appears, read: Homo sapiens, Epithelial cell, 72 h.
[5] abbreviates: read-out: Inhibition (IC50 in μM) of E1 to E2 transformation by 17β-HSD1, T-47D cells, [3H]-E1/E1 60 nM, 24 h.
Setting [6] is: T-47D cells, [3H]-E1/E1 60 nM, 24 h, inhibitor 0.1 μM.
Where [7] appears, read: T-47D cells, [3H]-E1/E1 60 nM, 24 h, inhibitor 1 μM.
[8] abbreviates: T-47D cells, [3H]-E1/E1 60 nM, 24 h, inhibitor 10 μM.

Each structure is given as a SMILES string. Where “and” joins values, the source holds several entries; their conditions need not be identical. Identical values can stand only once. Like-named read-outs stand apart in the source and are kept apart here. A value given as a limit tells only on which side of the number the result lay.

For the molecule `C[C@]12CC[C@@H]3c4ccc(Oc5cccc(C(N)=O)c5)cc4CC[C@H]3[C@@H]1CCC2=O` [Compound 5, 3-(3-Carbamoylphenyloxy)-estra-1,3,5(10)-trien-17-one], the IC50 in assay [1] is 0.31 µM; in assay [2] (setting [4]), above 30 µM; in assay [3] (Homo sapiens, T47D, 72 h) it was 49 µM. Moreover, the inhibition at 0.1 µM in assay [1] was 29.1 ± 6.2%. Further, in assay [1], the inhibition at 1 µM was found to be 70.7 ± 14.1%. The molecule further had an inhibition at 10 µM in assay [1] of 98.9 ± 2.8%. Moreover, the “Stimulation of ER+ cell proliferation (estrogenic activity)” value (“Stimulation of ER+ cell proliferation” below) in assay [2] and in assay [3] was “did not stimulate” in each case.
Turning to `C[C@]12CC[C@@H]3c4ccc(Oc5cccc(C(N)=O)c5)cc4CC[C@H]3[C@@H]1CC[C@@H]2O` [Compound 6, 3-(3-Carbamoylphenyloxy)-estra-1,3,5(10)-trien-17β-ol], in assay [1], the IC50 came to 1.2 µM, 0.1 µM produced 40 ± 6.5% inhibition, 1 µM produced 48.6 ± 15.7% inhibition and the inhibition at 10 µM turned out to be 59.6 ± 1.5%. In assay [2] (setting [4]), the IC50 was above 30 µM. The “Stimulation of ER+ cell proliferation” value in assay [2] is reported as “did not stimulate”. The same molecule gave an IC50 in assay [3] (Homo sapiens, T47D, 72 h) of 37 µM. Besides, in assay [3], the “Stimulation of ER+ cell proliferation” value is “did not stimulate”.
For the molecule `C[C@]12CC[C@@H]3c4ccc(Oc5cccc(C(N)=O)c5)cc4CC[C@H]3[C@@H]1C[C@@H](CCCBr)[C@@H]2O` [Compound 10, 3-(3-Carbamoylphenyloxy)-16α-(3-bromopropyl)-estra-1,3,5(10)-trien-17β-ol], in assay [1] (IC50 1.3 μM vs 0.58 μM of EM-251, T-47D cells), the “Inhibitory activity, fold lower than EM-251” value turned out to be 2 fold. In addition, in assay [1], the inhibition at 0.1 µM came to 28.2 ± 5.4%. Also, the inhibition at 1 µM in assay [1] was determined as 37 ± 14.5%. The molecule further gave an inhibition at 10 µM in assay [1] of 82.1 ± 5.7%. Further, the IC50 in assay [1] (setting [5]) was 1.3 µM; in assay [2] (setting [4]) it was 20 µM; in assay [3] (Homo sapiens, T47D, 72 h), 14 µM. The “Stimulation of ER+ cell proliferation” value in assay [2] and in assay [3] was “did not stimulate” throughout.
Regarding `C[C@]12CC[C@@H]3c4ccc(O)cc4CC[C@H]3[C@@H]1CCC2=O` [E1, estrone], in assay [1] (setting [6]), the inhibition at 0.1 µM was 45% and the “Inhibition (% at 0.1 μM)” value worked out at 44.9 ± 14.7%. Further, in assay [1] (setting [7]), the inhibition at 1 µM was 61% and the “Inhibition (% at 1 μM)” value is on record as 60.9 ± 8.3%. In assay [1] (setting [8]), the inhibition at 10 µM worked out at 78% and the “Inhibition (% at 10 μM)” value amounted to 78.1 ± 2.2%.
In assay [1], `C[C@]12CCC3c4ccc(O)cc4CCC3C1C[C@@H](CCCBr)[C@@H]2O` (some centres unmarked) [EM-251] yielded an IC50 of 0.58 µM, an inhibition at 0.1 µM of 43.8 ± 0.2%, an inhibition at 1 µM of 36.9 ± 9.3% and an inhibition at 10 µM of 86.6 ± 8%.
Take `C[C@]12CC[C@@H]3c4ccc(CCBr)cc4CC[C@H]3[C@@H]1C[C@H](Cc1cccc(C(N)=O)c1)[C@@H]2O` [PBRM]: in assay [1] (setting [6]), the “Inhibition (% at 0.1 μM)” value is 44% and 43.8 ± 3.4%. For the same molecule, the “Inhibition (% at 1 μM)” value in assay [1] (setting [7]) was 75% and 74.8 ± 3.2%. In addition, the “Inhibition (% at 10 μM)” value in assay [1] (setting [8]) came out at 91.0 ± 3.8%. In addition, in assay [1] (setting [5]), the IC50 amounted to 0.15 µM.
In the case of `C#C[C@]1(O)CC[C@H]2[C@@H]3CCc4cc(OC)c(N5CCN(C(=O)[C@@H]6CCCN6C(=O)c6ccc7ccccc7n6)CC5)cc4[C@H]3CC[C@@]21C` [RM-581, reference compound], the IC50 was 1.5 µM in assay [2] and 0.61 µM in assay [3].

(Values after article PMC9862175 (Molecules, 2023).)
